Test [1] addresses T1, Muscarinic acetylcholine receptor (Homo sapiens) (UniProt P20309+P08173+P11229+P08172+P08912). The experiment in a line: Tested in vitro for agonistic activity of compound towards muscarinic receptor in the concentration range of 1xe-6 to 1xe-4 M of guinea pig ileum; Responce varied in the range 17- 40%. The note with it: Cavia porcellus, filed as partial agonist, target entry is the homologue from another species. The test is classed as functional, tissue-based.

The nature of test [2]: Equipotent molar ratio relative to carbachol for nicotininc activity in frog was determined. It counts as functional.
Test [3] deals with Rattus norvegicus. The experiment in a line: Ganglionic muscarinic activity was determined by the changes in mean arterial blood pressure of the pithed rat treated with to produce a half-maximal pressure response up i.v. administration. It counts as functional. To be noted: iv.
In test [4] the test system is Rattus norvegicus. The experiment in a line: Ganglionic muscarinic activity was determined by the changes in mean arterial blood pressure of the pithed rat treated with to produce a half-maximal pressure response up i.v. administration; Inactive when assayed a dose range of 1-10 umol/Kg. The test is classed as functional, organism-based.
Test [5] concerns the target T1, Muscarinic acetylcholine receptor (Homo sapiens). The experiment in a line: Tested in vitro for agonistic activity of compound towards muscarinic receptor in the concentration range of 1xe-6 to 1xe-4 M of guinea pig ileum; Inactive. The note with it: Cavia porcellus, target entry is the homologue from another species. It counts as functional, tissue-based.

The term ED50 denotes the dose that gives a 50% effect, or the effect in half of the subjects.

Active and inactive are the calls of the source.

Take `C[N+](C)(C)CC#CCOC(=O)Nc1cccc(Br)c1`: the Max respose result in test [1] is “Partial agonist”. Moreover, the Ratio in test [2] was 4. For the same compound, in the test with Rattus norvegicus [3], the median effective dose (ED50) came out at 0.7 µmol/kg.
In the same order, the values of `C[N+](C)(C)CC#CCOC(=O)Nc1ccc(Br)cc1` are “Partial agonist”, 3.7 and 0.22 µmol/kg.
Take `CN(C)CC#CCOC(=O)Nc1ccc(Br)cc1`: in the test on Rattus norvegicus [4], the ED50 entry was “Inactive when assayed a dose range of 1-10 umol/Kg”.
In the case of `C[N+](C)(C)CC#CCOC(=O)Nc1cccc(Cl)c1`, the ED50 in the test on Rattus norvegicus [3] was determined as 0.59 µmol/kg.
On to `CN(C)CC#CCOC(=O)Nc1cccc(Br)c1`, for which the ED50 result in the test with Rattus norvegicus [4] was “Inactive when assayed a dose range of 1-10 umol/Kg”.
Consider `C[S+](C)CC#CCOC(=O)Nc1ccc(Cl)cc1.[O-][Cl+3]([O-])([O-])[O-]`, for which the Max respose result in test [5] was “inactive”. In the test on Rattus norvegicus [3], this compound yielded a median effective dose (ED50) of 1.52 µmol/kg.
For the compound `C[S+](C)CC#CCOC(=O)Nc1ccc(Br)cc1.[O-][Cl+3]([O-])([O-])[O-]`, the Max respose result in test [5] is “inactive”. Besides, the ED50 in the test with Rattus norvegicus [3] amounted to 1.56 µmol/kg.
For the compound `C[S+](C)CC#CCOC(=O)Nc1cccc(Br)c1.[O-][Cl+3]([O-])([O-])[O-]`, the Max respose entry in test [5] was “inactive”. In the test on Rattus norvegicus [3], this compound yielded an ED50 of 1.47 µmol/kg.
Regarding `C[S+](C)CC#CCOC(=O)Nc1cccc(Cl)c1.[O-][Cl+3]([O-])([O-])[O-]`, in test [5], the Max respose entry was “inactive”. The same compound came in with an ED50 with Rattus norvegicus [3] of 1.49 µmol/kg.

The record behind these values is ChEMBL document CHEMBL1124530, “Dimethylsulfonium analogues of the muscarinic agent McN-A-343: [4-[[N-(3- or 4-halophenyl)carbamoyl]oxy]-2-butynyl] dimethylsulfonium perchlorates” (1989).
